In patent publication US20020028836A1, “Potassium channel openers” (priority 2000, published 2002):

How the values were obtained:
[1] = system: primary cultured guinea-pig urinary bladder (GPB) cells; assay: Membrane hyperpolarization (MHP) assay, DiBAC(4)3 / FLIPR; assay type: cell-based; conditions: Cavia porcellus; for EC50: concentration that elicits 50% of the maximal response for the test sample; for Emax: maximal steady-state hyperpolarization, normalized to response with 10 μM P1075 (100%)
How it was run: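 Primary smooth-muscle cells from male guinea-pig bladder, grown to confluence, loaded 30 min at 37° C with 5 μM DiBAC(4)3 in HEPES buffer pH 7.4. Fluorescence drop on FLIPR followed 25 min after compound; steady-state hyperpolarization normalized to 10 μM P1075 (100%), EC50 from four-parameter fit of five concentrations.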

Compound | EC50 [1] [nM] | melting point [°C] | Emax [1] [%]
CC(C)C(NC(=O)c1ccc(Cl)cc1)NC(=NC#N)Nc1cccnc1 (stereo not drawn) [Example 63, 4-chloro-N-(1-{[(cyanoimino)(3-pyridinylamino)methyl]amino}-2-methylpropyl)benzamide] | 4400 | 182 to 184 | 73
C=CCC(C)(C)C(NC(=O)c1ccc(Cl)cc1)NC(=N[N+](=O)[O-])Nc1cccnc1 (stereo not drawn) [Example 127, 4-chloro-N-(1-{[(nitroimino)(3-pyridinylamino)methyl]amino}-2,2-dimethyl-4-pentenyl)benzamide] | 1200 | 200 to 203 | 65
CC[C@H](C)[C@H](NC(=O)c1ccc(C)cc1)NC(=S)Nc1cccnc1 [Example 36, 4-methyl-N-((1R,2S)-2-methyl-1-{[(3-pyridinylamino)carbothioyl]amino}butyl)benzamide] | 25500 | 102 to 104 | 50
CN(C)CC(C)(C)C(NC(=O)c1ccc(Cl)cc1)NC(=NC#N)Nc1cccnc1 (stereo not drawn) [Example 97, 4-chloro-N-[1-{[(cyanoimino)(3-pyridinylamino)methyl]amino}-3-(dimethylamino)-2,2-dimethylpropyl]benzamide] | 1600 | 101 to 103 | 74
Cc1ccc(C(=O)NC(NC(=O)Nc2ccccc2)C(Cl)(Cl)Cl)cc1 (stereo not drawn) [Example 42, N-{1-[(anilinocarbonyl)amino]-2,2,2-trichloroethyl}-4-methylbenzamide] | 2140 | 230 to 233 | 66
Cc1ccc(C(=O)NC(NC(=O)Nc2ccccc2F)C(Cl)(Cl)Cl)cc1 (stereo not drawn) [Example 43, 4-methyl-N-(2,2,2-trichloro-1-{[(2-fluoroanilino)carbonyl]amino}ethyl)benzamide] | 1210 | 257 to 259 | 80
CC(C)(C)C(NC(=O)c1ccc(Br)cc1)NC(=NC#N)Nc1cccnc1 (stereo not drawn) [Example 105, 4-bromo-N-(1-{[(cyanoimino)(3-pyridinylamino)methyl]amino}-2,2-dimethylpropyl)benzamide] | 53 | 180 to 181 | 106
CCC(CC)(CCC#N)C(NC(=O)c1ccc(Cl)cc1)NC(=N[N+](=O)[O-])Nc1cccnc1 (stereo not drawn) [Example 132, 4-chloro-N-(4-cyano-1-{[(nitroimino)(3-pyridinylamino)methyl]amino}-2,2-diethylbutyl)benzamide] | 130 | 100 to 110 | 124
Cc1ccccc1C(=O)NC(NC(=S)Nc1cccnc1)C(C)(C)C (stereo not drawn) [Example 26, N-(2,2-dimethyl-1-{[(3-pyridinylamino)carbothioyl]amino}propyl)-2-methylbenzamide] | 990 | 186 to 187 | 80
CC(C)(C1CCCCC1)C(NC(=O)c1ccc(Cl)cc1)NC(=N[N+](=O)[O-])Nc1cccnc1 (stereo not drawn) [Example 130, 4-chloro-N-(1-{[(nitroimino)(3-pyridinylamino)methyl]amino}-2-cyclohexyl-2-methylpropyl)benzamide] | 530 | 201 to 203 | 147
N#CN=C(Nc1cccnc1)NC(NC(=O)c1ccc(Cl)cc1)C12CC3CC(CC(C3)C1)C2 (stereo not drawn) [Example 100, N-(1-adamantyl{[(cyanoimino)(3-pyridinylamino)methyl]amino}methyl)-4-chlorobenzamide] | 180 | 209 to 210 | 87
N#CN=C(Nc1cccnc1)NC(CC12CC3CC(CC(C3)C1)C2)NC(=O)c1ccc(Cl)cc1 (stereo not drawn) [Example 95, N-(2-(1-adamantyl)-1-{[(cyanoimino)(3-pyridinylamino)methyl]amino}ethyl)-4-chlorobenzamide] | 840 | 202 to 203 | 97
COc1cccc(NC(=S)NC(NC(=O)c2ccc(C)cc2)C(F)(F)F)c1 (stereo not drawn) [Example 12, 4-methyl-N-(2,2,2-trifluoro-1-{[(3-methoxyanilino)carbothioyl]amino}ethyl)benzamide] | ≥ 10000 | 206 to 208 | 4
Cc1ccc(C(=O)NC(NC(=S)Nc2cccnc2)C(C)C)cc1 (stereo not drawn) [Example 35, 4-methyl-N-(2-methyl-1-{[(3-pyridinylamino)carbothioyl]amino}propyl)benzamide] | 13100 | 184 to 186 | 40

Second part, led by results:

EC50 [1] [nM] | melting point [°C] | Compound | Emax [1] [%]
2000 | 219 to 220 | O=C(NC(CC12CC3CC(CC(C3)C1)C2)NC(=N[N+](=O)[O-])Nc1cccnc1)c1ccc(Cl)cc1 (stereo not drawn) [Example 134, N-(2-(1-adamantyl)-1-{[(nitroimino)(3-pyridinylamino)methyl]amino}ethyl)-4-chlorobenzamide] | 86
470 | 205 to 207 | CC(C)(Cc1ccccc1)C(NC(=O)c1ccc(Cl)cc1)NC(=N[N+](=O)[O-])Nc1cccnc1 (stereo not drawn) [Example 128, 4-chloro-N-(1-{[(nitroimino)(3-pyridinylamino)methyl]amino}-2,2-dimethyl-3-phenylpropyl)benzamide] | 116
370 | 197 to 198 | Cc1ccc(C(=O)NC(NC(=S)Nc2cccc(C)c2)C(F)(F)F)cc1 (stereo not drawn) [Example 16, 4-methyl-N-{2,2,2-trifluoro-1-[(3-toluidinocarbothioyl)amino]ethyl}benzamide] | 65
> 10000 | 196 to 197 | N#CN=C(NCNC(=O)c1ccc(Cl)cc1)Nc1cccnc1 [Example 85, 4-chloro-N-({[(cyanoimino)(3-pyridinylamino)methyl]amino}methyl)benzamide] | < 20
1000 | 172 to 175 | Cc1ccc(C(=O)NC(C)NC(=S)Nc2cccc([N+](=O)[O-])c2)cc1 (stereo not drawn) [Example 29, 4-methyl-N-(1-{[(3-nitroanilino)carbothioyl]amino}ethyl)benzamide] | 28
1550 | 193 to 194 | COc1ccc(NC(=S)NC(NC(=O)c2ccc(C)cc2)C(F)(F)F)cc1 (stereo not drawn) [Example 6, 4-methyl-N-(2,2,2-trifluoro-1-{[(4-methoxyanilino)carbothioyl]amino}ethyl)benzamide] | 107
6100 | 194 to 195 | CCC1(C(NC(=O)c2ccc(Cl)cc2)NC(=NC#N)Nc2cccnc2)COCOC1 (stereo not drawn) [Example 101, 4-chloro-N-[{[(cyanoimino)(3-pyridinylamino)methyl]amino}(5-ethyl-1,3-dioxan-5-yl)methyl]benzamide] | 59
3500 | 104 to 105 | CSCCC(NC(=O)c1ccc(Cl)cc1)NC(=NC#N)Nc1cccnc1 (stereo not drawn) [Example 99, 4-chloro-N-[1-{[(cyanoimino)(3-pyridinylamino)methyl]amino}-3-(methylsulfanyl)propyl]benzamide] | 84
430 | 192 to 193 | CCC(CC)C(NC(=O)c1ccc(Cl)cc1)NC(=C[N+](=O)[O-])Nc1cccnc1 (stereo not drawn) [Example 68, 4-chloro-N-(2-ethyl-1-{[2-nitro-1-(3-pyridinylamino)ethenyl]amino}butyl)benzamide] | 99
700 | 192 to 193 | Cc1ccc(NC(=S)NC(NC(=O)c2ccc(C)cc2)C(F)(F)F)cc1 (stereo not drawn) [Example 10, 4-methyl-N-{2,2,2-trifluoro-1-[(4-toluidinocarbothioyl)amino]ethyl}benzamide] | 65
60 | 147 to 149 | O=C(NC(NC(=S)Nc1cccnc1)C(F)(F)F)c1ccc(Cl)cc1 (stereo not drawn) [Example 19, 4-chloro-N-(2,2,2-trifluoro-1-{[(3-pyridinylamino)carbothioyl]amino}ethyl)benzamide] | 117
1000 | 148 to 155 | Cc1ccc(C(=O)NC(CF)NC(=S)Nc2cccc([N+](=O)[O-])c2)cc1 (stereo not drawn) [Example 32, N-(2-fluoro-1-{[(3-nitroanilino)carbothioyl]amino}ethyl)-4-methylbenzamide] | 15
780 | 184 to 186 | Cc1ccc(C(=O)NC(N2CCN(c3cccc(F)c3)C2=S)C(Cl)(Cl)Cl)cc1 (stereo not drawn) [Example 37, 4-methyl-N-{2,2,2-trichloro-1-[3-(3-fluorophenyl)-2-thioxo-1-imidazolidinyl]ethyl}benzamide] | 85
320 | 167 to 170 | CC(C)(C)C(NC(=O)c1ccc(Cl)cc1)NC(=NC#N)Nc1cccc(F)c1 (stereo not drawn) [Example 70, 4-chloro-N-(1-{[(cyanoimino)(3-fluoroanilino)methyl]amino}-2,2-dimethylpropyl)benzamide] | 74
3200 | 170 to 171 | Cc1ccc(C(=O)NC(Cc2ccccc2)NC(=S)Nc2cccc([N+](=O)[O-])c2)cc1 (stereo not drawn) [Example 30, 4-methyl-N-(1-{[(3-nitroanilino)carbothioyl]amino}-2-phenylethyl)benzamide] | 22
2000 | 175 to 180 | C=CCOCC(CC)(COCC=C)C(NC(=O)c1ccc(Cl)cc1)NC(=N[N+](=O)[O-])Nc1cccnc1 (stereo not drawn) [Example 131, N-(2,2-bis[(allyloxy)methyl]-1-{[(nitroimino)(3-pyridinylamino)methyl]amino}butyl)-4-chlorobenzamide] | 53
